Experiment [1] relates to TNFα. Put plainly: TNFα inhibition test (Moreira et al.). Format: cell-based. To be noted: for IC50: read-out: TNF IC50; for TNF Potency: relative potency, compound 1 = 100.00. From the text: A series of hydroxamic acid derivatives described in EP 901465 were subjected to the histone deacetylase (HDAC) and TNFα inhibition tests in accordance with the methods described by Lechner et al., Biochim Biophys. Acta 1996, 1296, 181-188 and Moreira A. L. et al., J. Exp. Med. 1993, […] respectively.

Experiment [2] concerns IL-1β. Description: LPS-stimulated PBMC cytokine production in vitro: IL-1β (ECL). It is filed as cell-based. To be noted: Homo sapiens, LPS 10 ng/ml, 24 h. As for the experimental part: (§1) Samples of peripheral blood or buffy coats from healthy volunteers were used. […] At the end of the treatment the pro-inflammatory cytokines TNFα, IL-1β were measured by means of an electrochemiluminescence assay (ECL) using specific commercial antibodies.

Experiment [3] deals with TNFα. Description: LPS-stimulated PBMC cytokine production in vitro: TNFα (ECL). It is filed as cell-based. Conditions: Homo sapiens, LPS 10 ng/ml, 24 h. As for the experimental part: as §1
The subject of experiment [4] is IFNγ. Description: IFNγ synthesis by PBMCs stimulated with IL-12 and IL-18 (ELISA). It is filed as cell-based. To be noted: Homo sapiens; PBMC, IL-12 10 ng/ml + IL-18 20 ng/ml, 48 h; read-out: IFNγ (from IL-12 + IL-18) IC50. As for the experimental part:
Cytokine IFNγ is produced by the T lymphocytes following their stimulation by pro-inflammatory cytokines, especially IL-12 and IL-18 (Dinarello C. A. and Moldawer L. L. Proinflammatory and anti-inflammatory cytokines in rheumatoid arthritis. A primer for clinicians. 2nd Edition, Amgen Inc., 2000).
At the end, the cells were stimulated for 48 hours in the presence of the compound by simultaneous addition of recombinant IL-12 (10 ng/ml) and recombinant IL-18 (20 ng/ml). The quantity of IFNγ produced was determined with a commercial ELISA assay.
For orientation: In an ELISA, binding on a coated surface is turned into a signal by an enzyme label.

The subject of experiment [5] is inflammatory cytokines induced by LPS. Description: LPS-stimulated PBMC cytokine production, summary over all cytokines. To be noted: Homo sapiens, read-out: IC50, synthesis of all the inflammatory cytokines induced by LPS.
Experimental: (§2) Interferon γ (IFNγ) was measured with a commercially available ELISA assay.
The test system of experiment [6] is IFNγ. Description: LPS-stimulated PBMC cytokine production in vitro: IFNγ (ELISA). To be noted: Homo sapiens, 24 h, read-out: IFNγ IC50.
Experimental: as §2

The structures appear in SMILES notation.

In general, IC50 refers to the concentration that gives 50% inhibition. Turning to `CCN(CC)Cc1ccc2cc(COC(=O)Nc3ccc(C(=O)NO)cc3)ccc2c1` [Compound 1], in experiment [1], the IC50 was 7 nM and the “TNF Potency” value was 100.00.

Take `CCN(CC)Cc1ccc2cc(CCC(=O)Nc3ccc(C(=O)NO)cc3)ccc2c1` [Compound 2]: in experiment [1], the IC50 is 10.2 nM and the “TNF Potency” value is 68.75.

Take `CCN(CC)Cc1ccc(COC(=O)Nc2ccc(C(=O)NO)cc2)c2ccccc12` [Compound 3]: in experiment [1], the IC50 was determined as 10.3 nM and the “TNF Potency” value was found to be 68.02.

On to `CCN(CC)Cc1ccc2cc(CNC(=O)Nc3ccc(C(=O)NO)cc3)ccc2c1` [Compound 4], for which, in experiment [1], the IC50 amounted to 11.2 nM and the “TNF Potency” value was found to be 62.68.

Take `CCCN(CCC)Cc1ccc2cc(COC(=O)Nc3ccc(C(=O)NO)cc3)ccc2c1` [Compound 5]: in experiment [1], the IC50 is 12.7 nM and the “TNF Potency” value is recorded as 55.28.

`O=C(Nc1ccc(C(=O)NO)cc1)OCc1ccc2c(c1)OCO2` [Compound 6]: in experiment [1], the 50% inhibitory concentration (IC50) is 50 nM and the “TNF Potency” value was found to be 14.00.

`O=C(Nc1ccc(C(=O)NO)cc1)OCC1CCc2ccccc2C1` (centres unmarked) [Compound 7]: in experiment [1], the IC50 is 65.5 nM and the “TNF Potency” value came to 10.68.

Regarding `CCCCN(CCCC)Cc1ccc2cc(COC(=O)Nc3ccc(C(=O)NO)cc3)ccc2c1` [Compound 8], in experiment [1], the concentration for half-maximal inhibition (IC50) was 67.6 nM and the “TNF Potency” value amounted to 10.32.

With `O=C(Nc1ccc(C(=O)NO)cc1)OCCC12CC3CC(CC(C3)C1)C2` [Compound 9], in experiment [1], the IC50 is 159 nM and the “TNF Potency” value amounted to 4.40.

On to `O=C(Nc1ccc(C(=O)NO)cc1)OCCCc1ccccc1` [Compound 10], for which, in experiment [1], the IC50 worked out at 159 nM and the “TNF Potency” value was found to be 4.40.

Regarding `O=C(Nc1ccc(C(=O)NO)cc1)OCc1ccc2ccccc2c1` [Compound 11], in experiment [1], the IC50 amounted to 159 nM and the “TNF Potency” value came to 4.40.

Consider `O=C(Nc1ccc(C(=O)NO)cc1)OCCCc1ccccn1` [Compound 12], for which, in experiment [1], the IC50 was determined as 230 nM and the “TNF Potency” value turned out to be 3.04.

Consider `O=C(Nc1ccc(C(=O)NO)cc1)OCCCc1ccncc1` [Compound 13], for which, in experiment [1], the half-inhibitory concentration (IC50) came out at 270 nM and the “TNF Potency” value turned out to be 2.59.

As to `O=C(CCCCc1ccccc1)Nc1ccc(C(=O)NO)cc1` [Compound 14], in experiment [1], the IC50 worked out at 300 nM and the “TNF Potency” value is recorded as 2.33.

Regarding `CC[N+]([O-])(CC)Cc1ccc2cc(COC(=O)Nc3ccc(C(=O)NO)cc3)ccc2c1` [Compound 15], in experiment [1], the 50% inhibitory concentration (IC50) came to 1000 nM and the “TNF Potency” value was 0.70.

As to `CC(/C=C/C(=O)NO)=C\[C@@H](C)C(=O)c1ccc(N(C)C)cc1` [TSA, trichostatin], the IC50 in experiment [2] was 100 nM; in experiment [3], 50 nM; in experiment [4] it was 490 nM; in experiment [5] it was 50 to 200 nM; in experiment [6] it was 10 nM.

The values are drawn from patent US20040157930A1, “Histone deacetylase enzyme-inhibiting derivatives of hydroxamic acid as new cytokine synthesis-inhibiting anti-inflammatory drugs” (priority 2001, published 2004).
